Where a name gives a salt, the structure may show the parent alone. Read-outs that look alike come from different tables or passages of the source. Square brackets hold non-standard residues; d marks the D form. Peptide text beside a SMILES is read from it.
Assays:
[1] = system: rat peritoneal mast cells; assay: In vitro histamine induction in rat peritoneal mast cells; format: cell-based
Summary of the method: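 Mast cells from peritoneal lavage of Sprague Dawley rats were incubated with compound at 10 μM for 15 min at 37 °C in HBSS + 25 mM HEPES pH 7.4. Supernatant histamine measured by EIA; response expressed as fold change versus pre-incubation levels.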

plasma histamine [2] = conditions: rat
Description: For the in vivo evaluation of histamine release, compounds were dosed in isoflurane-anesthetized normal rats at 2 mg/kg by IV bolus (administered over less than one minute). Plasma histamine was measured 5 minutes after compound administration (Cayman histamine EIA #589651).

plasma histamine [3] = assay: In vivo histamine release after IV bolus in normal Sprague Dawley rats (Example 6, FIG. 3 and 4)
plasma PTH [4] = assay: 1K1C rat model of acute renal insufficiency, plasma PTH after dosing; format: in vivo; conditions: 1K1C rats, 3 mg/kg 30-minute IV infusion, FIG. 1
Source text: A rat model of acute renal insufficiency (also referred to as the 1K1C model) was developed to simulate the pathology of SHPT associated with end stage renal disease. […] The development of this model allowed for the further characterization of described compounds in the context of a subject with renal dysfunction and elevated PTH. Typical baseline PTH levels in this model averaged ˜450 pg/mL.
The ensuing ischemia/reperfusion (I/R) damage to the remaining kidney results in significant necrosis and renal failure. Serum creatinine levels were elevated for over 24-48 hours following I/R insult (data not shown). […] By 48 hours post-I/R, plasma PTH levels were elevated to ˜450 pg/mL (˜5 fold increase) and in some instances reach as high as ˜1200 pg/mL. This reproducible increase in serum creatinine and PTH provided a robust model that mimics the physiology seen ESRD patients.
The protocol used in this study is as follows. Male Sprague Dawley rats were purchased from Charles River Laboratories (Hollister, Calif.; requested purchase weight 250-275 g). […] Animals were maintained in a temperature-controlled environment with a constant 12 hours light/12 hours dark cycle and free access to food and water at all times. All experimental procedures with animals were performed according to IACUC guidelines.
General anesthesia was induced and maintained by intraperitoneal (IP) injection of sodium pentobarbital (5.2%, 0.4 mL/rat). For animals that received 45 minutes of renal ischemia an additional IP injection of sodium pentobarbital (5.2%, 0.1 mL/rat) was given to maintain the anesthetic plane. Blood sampling for PTH measurements following administration of compounds in normal rats was done under continuous isoflurane anesthesia.
For model development studies, the left femoral vein was cannulated with a PE-10 tube for blood drawing. Both kidneys were exposed via a laparotomy. A right nephrectomy was performed after the right renal pedicle and ureter were ligated with double 2-0 silk sutures. After confirmation of non-bleeding in the right pedicle, the left renal artery was carefully dissected and clamped with a micro vascular clip to induce left renal global ischemia. Renal ischemia was confirmed by observation of a global white-grey color change (blanching). The abdominal incision was temporarily covered with gauze to help maintain the temperature of the abdominal organs. After 45 minutes, the designated period of ischemia, the clip was removed and left renal artery flow was considered restored upon observation of a global restoration of red color. The abdominal incision was closed in layers with 2-0 silk sutures. The animal was then recovered from anesthesia. Physiological parameters including body temperature (36-37.5° C.) and body weight were measured throughout the procedure. Body temperature was monitored and maintained using a heat pad rectal probe feedback system.
Approximately 48 hours after the 1K1C surgery (I/R injury), animals were dosed with various compounds to measure effects on plasma PTH and calcium. In most cases, test articles were administered by IV infusion (infusion time 5, 10 or 30 minutes) although in some studies compounds were administered by IV bolus or subcutaneous (SC) bolus injection. For drug administration and blood draws, animals were anesthetized with isoflurane.

[5] = molecular target: T1, human calcium-sensing receptor (CaSR) (Homo sapiens, UniProt P41180); assay: In vitro cell assay in HEK-293 expressing the human calcium-sensing receptor (IP1 production); format: cell-based; conditions: for EC50: Table 5, IP1 production in HEK293 cells expressing human CaSR, eight concentrations in duplicate, read-out: EC50 in CaSR in vitro assay; for potency to activate the human CaSR in vitro: HEK-293 cell assay
T1 construct: expressed in transfected cells; host or cells: HEK 293T cells, transiently transfected (lipofectamine 2000); in some cases HEK293 cells stably transfected
T1 sequence (P41180 20-1078): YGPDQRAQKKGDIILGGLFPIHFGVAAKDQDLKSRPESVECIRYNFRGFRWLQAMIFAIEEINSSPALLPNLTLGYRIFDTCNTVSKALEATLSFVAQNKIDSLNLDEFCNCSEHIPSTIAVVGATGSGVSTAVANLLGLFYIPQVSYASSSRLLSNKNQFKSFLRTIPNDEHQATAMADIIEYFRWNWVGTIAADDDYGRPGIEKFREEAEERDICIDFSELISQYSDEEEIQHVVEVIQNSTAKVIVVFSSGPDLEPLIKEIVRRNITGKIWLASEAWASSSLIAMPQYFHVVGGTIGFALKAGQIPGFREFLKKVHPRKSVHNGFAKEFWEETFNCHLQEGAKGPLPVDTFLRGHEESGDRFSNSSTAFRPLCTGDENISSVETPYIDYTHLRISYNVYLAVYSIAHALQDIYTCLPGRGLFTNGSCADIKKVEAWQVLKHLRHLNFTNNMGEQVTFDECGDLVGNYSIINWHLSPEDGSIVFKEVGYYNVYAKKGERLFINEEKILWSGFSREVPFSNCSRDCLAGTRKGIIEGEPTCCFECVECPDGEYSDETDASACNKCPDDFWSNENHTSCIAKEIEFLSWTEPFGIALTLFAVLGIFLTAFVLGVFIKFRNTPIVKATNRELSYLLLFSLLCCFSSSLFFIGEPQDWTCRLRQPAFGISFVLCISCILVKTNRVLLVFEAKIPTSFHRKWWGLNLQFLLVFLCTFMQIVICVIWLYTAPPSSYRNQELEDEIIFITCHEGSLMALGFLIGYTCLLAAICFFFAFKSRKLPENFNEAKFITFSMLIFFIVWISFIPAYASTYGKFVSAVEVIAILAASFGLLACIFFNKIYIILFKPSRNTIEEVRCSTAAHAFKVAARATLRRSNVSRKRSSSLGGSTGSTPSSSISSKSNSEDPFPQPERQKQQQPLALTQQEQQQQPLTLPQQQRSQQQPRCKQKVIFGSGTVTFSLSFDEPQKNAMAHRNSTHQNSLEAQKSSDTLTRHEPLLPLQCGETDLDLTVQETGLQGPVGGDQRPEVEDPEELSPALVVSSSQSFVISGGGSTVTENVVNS
Summary of the method: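 HEK293 cells transfected with human CaSR exposed to peptides at eight concentrations in duplicate (top 1 mM or 300 μM, ½-log dilutions) at 37 °C for 1.5 h.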

plasma PTH [6] = assay: In vivo PTH lowering after IV bolus in isoflurane-anesthetized normal Sprague Dawley rats; parameters: species or system rat; conditions: Table 2; for % PTH reduction of baseline at 1 hour post IV administration of 0.5 mg/kg compound: isoflurane-anesthetized normal rats, 0.5 mg/kg IV; for 0.5 mg/kg IV bolus % PTH AUC of saline control: normal rats, AUC 1-4 h
Summary of the method: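 Peptides were given as a 0.5 mg/kg IV bolus to normal Sprague Dawley rats kept under isoflurane throughout, with saline bolus controls.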

plasma histamine [7] = conditions: rat, in vivo, iv
plasma PTH [8] = assay: 1K1C rat model of acute renal insufficiency, plasma PTH after dosing; format: in vivo; conditions: 1K1C rats, oral 30 mg/kg

Compound | Histamine in vitro Fold change of non-treated at 10 uM [1] [fold] | Histamine response in vivo Fold change from pre-dose levels 5′ post injection 2 mg/kg IV bolus (plasma histamine [2]) [fold] | EC50 [5] [nM] | % PTH reduction of baseline at 1 hour post IV administration of 0.5 mg/kg compound (plasma PTH [6]) [%] | 0.5 mg/kg IV bolus % PTH AUC of saline control (plasma PTH [6]) [%] | further results
CC(=O)N[C@H](CSSC[C@H](N)C(=O)O)C(=O)N[C@H](C)C(=O)N[C@H](CCCNC(=N)N)C(=O)N[C@H](CCCNC(=N)N)C(=O)N[C@H](CCCNC(=N)N)C(=O)N[C@H](C)C(=O)N[C@H](CCCNC(=N)N)C(N)=O [SEQ ID NO: 3, Ac-c(C)arrrar-NH2] | 0.6 | 0.9 | – | – | – | fold increase in histamine level relative to pre-dose (plasma histamine [3]; 3 mg/kg IV bolus, isoflurane-anesthetized Sprague Dawley rats, FIG. 4): no apparent histamine response
CC(=O)N[C@H](CS)C(=O)N[C@H](CCCNC(=N)N)C(=O)N[C@H](CCCNC(=N)N)C(=O)N[C@H](CCCNC(=N)N)C(=O)N[C@H](CCCNC(=N)N)C(=O)N[C@H](CCCNC(=N)N)C(N)=O [SEQ ID NO: 5, Ac-crrrrr-NH2] (Ac-[dC][dR][dR][dR][dR][dR]-NH2) | – | – | 2500 | – | – | mean PTH reduction at the 24 hour time point (plasma PTH [4]): 60%
CC(=O)N[C@H](CS)C(=O)N[C@H](C)C(=O)N[C@H](CCCNC(=N)N)C(=O)N[C@H](C)C(=O)N[C@H](CCCNC(=N)N)C(=O)N[C@H](CCCNC(=N)N)C(=O)N[C@H](CCCNC(=N)N)C(N)=O [SEQ ID NO: 15, Ac-cararrr-NH2] (Ac-[dC][dA][dR][dA][dR][dR][dR]-NH2) | 2.5 | 1.0 | 13000 | 75 | 116 | histamine response after IV bolus (plasma histamine [7]): lack of a histamine response; potency to activate the human CaSR in vitro [5]: significantly reduced potency in vitro in activating the CaSR
CC(=O)N[C@H](CS)C(=O)N[C@H](C)C(=O)N[C@H](CCCNC(=N)N)C(=O)N[C@H](CCCNC(=N)N)C(=O)N[C@H](CCCNC(=N)N)C(=O)N[C@H](CCCNC(=N)N)C(=O)N[C@H](C)C(N)=O [SEQ ID NO: 19, Ac-carrrra-NH2] (Ac-[dC][dA][dR][dR][dR][dR][dA]-NH2) | 1.3 | 0.9 | – | 29 | 72 | –
CC(=O)N[C@H](CS)C(=O)N[C@H](CCCNC(=N)N)C(=O)N[C@H](C)C(=O)N[C@H](CCCNC(=N)N)C(=O)N[C@H](CCCNC(=N)N)C(=O)N[C@H](CCCNC(=N)N)C(=O)N[C@H](C)C(N)=O [SEQ ID NO: 20, Ac-crarrra-NH2] (Ac-[dC][dR][dA][dR][dR][dR][dA]-NH2) | 1.1 | 1.0 | – | 45 | 69 | –
CC(=O)N[C@H](CS)C(=O)N[C@H](CCCNC(=N)N)C(=O)N[C@H](C)C(=O)N[C@H](CCCNC(=N)N)C(=O)N[C@H](CCCNC(=N)N)C(=O)N[C@H](C)C(=O)N[C@H](CCCNC(=N)N)C(N)=O [SEQ ID NO: 23, Ac-crarrar-NH2] (Ac-[dC][dR][dA][dR][dR][dA][dR]-NH2) | 1.5 | 0.8 | – | 0 | 43 | –
CC(=O)N[C@H](CS)C(=O)N[C@H](CCCNC(=N)N)C(=O)N[C@H](CCCNC(=N)N)C(=O)N[C@H](C)C(=O)N[C@H](CCCNC(=N)N)C(=O)N[C@H](C)C(=O)N[C@H](CCCNC(=N)N)C(N)=O [SEQ ID NO: 25, Ac-crrarar-NH2] (Ac-[dC][dR][dR][dA][dR][dA][dR]-NH2) | – | 0.9 | – | – | – | –
CC(=O)N[C@H](CS)C(=O)N[C@H](CCCNC(=N)N)C(=O)N[C@H](CCCNC(=N)N)C(=O)N[C@H](CCCNC(=N)N)C(=O)N[C@H](CCCNC(=N)N)C(=O)N[C@H](CCCNC(=N)N)C(=O)N[C@H](CCCNC(=N)N)C(=O)N[C@H](CCCNC(=N)N)C(=O)N[C@H](CCCNC(=N)N)C(N)=O [SEQ ID NO: 41, Ac-crrrrrrrr-NH2] | – | – | 300 | – | – | histamine fold over baseline (plasma histamine [3]; equimolar IV bolus 2.1 μmol/kg, normal rats, 5 minutes after dosing, FIG. 3): 6-9 fold; histamine response after IV bolus (plasma histamine [3]; rats, IV bolus): largest induction of histamine; potency to activate the human CaSR in vitro [5]: more potent at activating the CaSR
C[C@@H](NCCCc1cccc(C(F)(F)F)c1)c1cccc2ccccc12 [cinacalcet, Cinacalcet hydrochloride] | – | – | – | – | – | duration of PTH lowering (plasma PTH [8]): up to 6 hours; lowering of PTH (plasma PTH [8]): approximately 50%
Ac-c(C)rrarar-NH2 [SEQ ID NO: 28] | 0.7 | 0.9 | – | 0 | 16 | –

From patent US10280198B2, “Therapeutic agents for reducing parathyroid hormone levels” (KAI PHARMACEUTICALS, INC., priority 2009, dated 2019)
